Holding throughout (type): cell-based
Assay [1] has as its system Staphyrococcus aureus ATCC 6538. Nature of the assay: MIC by Agar Dilution Test, Sa-4. The note with it: read-out: Minimum inhibitory concentration (MIC). The method, then:
(§1) Minimum inhibitory concentration (MIC) was determined by Agar Dilution Test (ADT).
(§2) Samples were dissolved in ethanol or water (according to solubility of each sample) to carry out two-fold serial dilution. A hundred μl of the resultant was added to a 10 ml sterilized agar medium (skin-related bacteria and standard bacteria in Mueller-Hinton Medium (Difco), yeast and filamentous bacteria in Sabroud Medium (Difco) and anaerobic bacteria in Trypticase Soy agar(BBL)), well agitated, transferred to a 9 cmf petri dish and immobilized at room temperature. To this petri dish, a 27-spot microplanter MIT-P from Sakuma Seisakusho, LTD. was used to spot 1×10^5 cfu (colony forming unit) of skin-related bacteria and standard bacteria, and the resultants were cultured at 37° C. for 18 hours. Yeast and filamentous bacteria were spotted for 5000 cfu (except Cg-1 was 50˜100 cfu) and cultured at 27° C. for 72 hours. Anaerobic bacteria were cultured at 37° C. for 72 hours under anaerobic conditions (using BBL gas pack anaerobic system). After completion of cultivation, growth of each bacterium was compared with that in a petri dish with alcohol alone (blank). A concentration of a sample without a bacterium growth was determined as the minimum inhibitory concentration (MIC).
(§3) As comparative substances, butylparaben (BPHB) and triclosan were determined as well.
In general terms: In agar dilution, organisms are placed on agar that contains the substance at set levels.

Assay [2] relates to Streptococcus mutans JCM 5175. Nature of the assay: MIC by Agar Dilution Test, Su-1. The note with it: read-out: Minimum inhibitory concentration (MIC). On the procedure: as §1, §2, §3
The test system of assay [3] is Staphyrococcus epidermidis ATCC 12228. Nature of the assay: MIC by Agar Dilution Test, Se-3. The note with it: read-out: Minimum inhibitory concentration (MIC). The method, then: as §1, §2, §3
Assay [4] relates to Actinomyces viscosus JCM 8352. Nature of the assay: MIC by Agar Dilution Test, Av-1. The note with it: read-out: Minimum inhibitory concentration (MIC). On the procedure:
as §1, §2, §3

For assay [5], the system named is Propionibacterium acnes JCM 6473. Nature of the assay: MIC by Agar Dilution Test, Pa-2. The note with it: Cutibacterium acnes, read-out: Minimum inhibitory concentration (MIC). The method, then:
as §1, §2, §3

The test system of assay [6] is Propionibacterium acnes ATCC 6919. Nature of the assay: MIC by Agar Dilution Test, Pa-3. The note with it: Cutibacterium acnes, read-out: Minimum inhibitory concentration (MIC). On the procedure: as §1, §2, §3
Assay [7] has as its system Actinomyces naeslundii JCM 8350. Nature of the assay: MIC by Agar Dilution Test, Aa-1. The note with it: read-out: Minimum inhibitory concentration (MIC). On the procedure:
as §1, §2, §3

The subject of assay [8] is Bacillus subtilis PCI 219 IFO 3134. Nature of the assay: MIC by Agar Dilution Test, Bs-1. The note with it: read-out: Minimum inhibitory concentration (MIC). The method, then: as §1, §2, §3
Assay [9] concerns Prevotella intermedia JCM 6322. Nature of the assay: MIC by Agar Dilution Test, Pt-1. The note with it: read-out: Minimum inhibitory concentration (MIC). The method, then: as §1, §2, §3
In assay [10] the test system is Staphyrococcus epidermidis var. h-6 Takasago isolate. Nature of the assay: MIC by Agar Dilution Test, Se-2. The note with it: read-out: Minimum inhibitory concentration (MIC). The method, then: as §1, §2, §3
Assay [11] has as its system Fusobacterium nucleatum JCM 6328. Nature of the assay: MIC by Agar Dilution Test, Fn-1. The note with it: read-out: Minimum inhibitory concentration (MIC). On the procedure: as §1, §2, §3
In assay [12] the test system is Malassezia furfur IFO 0656. Nature of the assay: MIC by Agar Dilution Test, Mf-1. The note with it: read-out: Minimum inhibitory concentration (MIC). The method, then:
as §1, §2, §3

The test system of assay [13] is Staphyrococcus epidermidis JCM 2414. Nature of the assay: MIC by Agar Dilution Test, Se-1. The note with it: read-out: Minimum inhibitory concentration (MIC). On the procedure: as §1, §2, §3
The subject of assay [14] is Staphyrococcus aureus 209P IAM 12082. Nature of the assay: MIC by Agar Dilution Test, Sa-3. The note with it: read-out: Minimum inhibitory concentration (MIC). On the procedure: as §1, §2, §3
The test system of assay [15] is Porphyromonas gingivalis JCM 8525. Nature of the assay: MIC by Agar Dilution Test, Pg-1. The note with it: read-out: Minimum inhibitory concentration (MIC). On the procedure:
as §1, §2, §3

The subject of assay [16] is Corynebacterium minutissimum IFO 15361. Nature of the assay: MIC by Agar Dilution Test, Cm-1. The note with it: read-out: Minimum inhibitory concentration (MIC). On the procedure: as §1, §2, §3
Assay [17] relates to Bacteroides fragilis GM 7000 JCM 5560. Nature of the assay: MIC by Agar Dilution Test, Bf-1. The note with it: read-out: Minimum inhibitory concentration (MIC). On the procedure: as §1, §2, §3
For assay [18], the system named is Corynebacterium xerosis JCM 1324. Nature of the assay: MIC by Agar Dilution Test, Cx-2. The note with it: read-out: Minimum inhibitory concentration (MIC). On the procedure:
as §1, §2, §3

In brackets after ≈: the same amount, converted by molar mass. Like-named read-outs stand apart in the source and are kept apart here.

As for `C=CC(C)(CCC=C(C)C)c1c2occc2c(O)c2ccc(=O)oc12` (stereo not drawn) [9-(1′,5′-dimethyl-1′-vinyl-4′-hexenyl)-4-hydroxy-7H-furo[3,2-γ][1]benzopyran-7-one], the MIC in assay [1] (Sa-4, Mueller-Hinton Medium, 1×10^5 cfu, 37° C. for 18 hours) is 3.1 µg/mL (≈ 9.16 µM); in [2] (JCM5175, Su-1, Trypticase Soy agar, 37° C. for 72 hours, anaerobic conditions), 6.3 µg/mL (≈ 18.6 µM); in assay [3] (Se-3, Mueller-Hinton Medium, 1×10^5 cfu, 37° C. for 18 hours) it was 3.1 µg/mL (≈ 9.16 µM); in assay [4] (JCM8352, Av-1, Trypticase Soy agar, 37° C. for 72 hours, anaerobic conditions) it was 3.1 µg/mL (≈ 9.16 µM); in [5] (JCM6473, Pa-2, Trypticase Soy agar, 37° C. for 72 hours, anaerobic conditions), 3.1 µg/mL (≈ 9.16 µM); in [6] (ATCC6919, Pa-3, Trypticase Soy agar, 37° C. for 72 hours, anaerobic conditions), 3.1 µg/mL (≈ 9.16 µM). Moreover, the MIC in assay [7] (JCM8350, Aa-1, Trypticase Soy agar, 37° C. for 72 hours, anaerobic conditions) is 3.1 µg/mL (≈ 9.16 µM); in assay [8] (IFO3134, Bs-1, Mueller-Hinton Medium, 1×10^5 cfu, 37° C. for 18 hours), 3.1 µg/mL (≈ 9.16 µM); in assay [9] (JCM6322, Pt-1, Trypticase Soy agar, 37° C. for 72 hours, anaerobic conditions), 1.6 µg/mL (≈ 4.73 µM); in assay [10] (Se-2, Mueller-Hinton Medium, 1×10^5 cfu, 37° C. for 18 hours), 3.1 µg/mL (≈ 9.16 µM); in assay [11] (JCM6328, Fn-1, Trypticase Soy agar, 37° C. for 72 hours, anaerobic conditions), 1.6 µg/mL (≈ 4.73 µM); in assay [12] (Mf-1 (yeast), Sabroud Medium, 5000 cfu, 27° C. for 72 hours), 3.1 µg/mL (≈ 9.16 µM). In addition, the MIC in assay [13] (Se-1, Mueller-Hinton Medium, 1×10^5 cfu, 37° C. for 18 hours) is 3.1 µg/mL (≈ 9.16 µM); in assay [14] (Sa-3, Mueller-Hinton Medium, 1×10^5 cfu, 37° C. for 18 hours), 3.1 µg/mL (≈ 9.16 µM); in assay [15] (JCM8525, Pg-1, Trypticase Soy agar, 37° C. for 72 hours, anaerobic conditions), 1.6 µg/mL (≈ 4.73 µM); in assay [16] (IFO15361, Cm-1, Mueller-Hinton Medium, 1×10^5 cfu, 37° C. for 18 hours) it was 3.1 µg/mL (≈ 9.16 µM); in [17] (JCM5560, Bf-1, Trypticase Soy agar, 37° C. for 72 hours, anaerobic conditions), 1.6 µg/mL (≈ 4.73 µM); in assay [18] (JCM1324, Cx-2, Mueller-Hinton Medium, 1×10^5 cfu, 37° C. for 18 hours) it was 3.1 µg/mL (≈ 9.16 µM).
In the case of `CCCCOC(=O)c1ccc(O)cc1` [Butylparaben, butylparaben], the MIC in assay [1] (18 h) turned out to be 200 µg/mL (≈ 1030 µM); in assay [2] (JCM5175, 72 h), 200 µg/mL (≈ 1030 µM); in assay [3] (18 h), 200 µg/mL (≈ 1030 µM); in [4] (JCM8352, 72 h), 100 µg/mL (≈ 515 µM); in assay [5] (JCM6473, 72 h), 100 µg/mL (≈ 515 µM); in assay [6] (ATCC6919, 72 h), 100 µg/mL (≈ 515 µM). Besides, the MIC came out at 100 µg/mL (≈ 515 µM) in assay [7] (JCM8350, 72 h); 200 µg/mL (≈ 1030 µM) in assay [8] (IFO3134, 18 h); 100 µg/mL (≈ 515 µM) in assay [9] (JCM6322, 72 h); 200 µg/mL (≈ 1030 µM) in assay [10] (18 h); 100 µg/mL (≈ 515 µM) in assay [11] (JCM6328, 72 h); 100 µg/mL (≈ 515 µM) in assay [12] (72 h). The MIC in assay [13] (18 h) worked out at 200 µg/mL (≈ 1030 µM); in assay [14] (18 h), 100 µg/mL (≈ 515 µM); in assay [15] (JCM8525, 72 h) it was 50 µg/mL (≈ 257 µM); in assay [16] (IFO15361, 18 h), 200 µg/mL (≈ 1030 µM); in assay [17] (JCM5560, 72 h), 50 µg/mL (≈ 257 µM); in assay [18] (JCM1324, 18 h), 50 µg/mL (≈ 257 µM).
Consider `Oc1cc(Cl)ccc1Oc1ccc(Cl)cc1Cl` [Triclosan], for which the MIC in assay [1] (18 h) turned out to be 1.6 µg/mL (≈ 5.53 µM); in assay [3] (18 h) it was 1.6 µg/mL (≈ 5.53 µM); in assay [8] (IFO3134, 18 h), 0.78 µg/mL (≈ 2.69 µM); in [10] (18 h), 1.6 µg/mL (≈ 5.53 µM); in assay [12] (72 h) it was 1.6 µg/mL (≈ 5.53 µM); in assay [13] (18 h), 1.6 µg/mL (≈ 5.53 µM). For the same compound, the MIC in [14] (18 h) stood at 1.6 µg/mL (≈ 5.53 µM); in assay [16] (IFO15361, 18 h) it was 1.6 µg/mL (≈ 5.53 µM); in assay [18] (JCM1324, 18 h), 3.1 µg/mL (≈ 10.7 µM).

Source of the values: patent publication US7473789B2, “9-(1′,5′-dimethyl-1′-vinyl -4′- hexenyl)-4-hydroxy-7H-furo[3,2-γ] [1] benzopyran-7-one as antibacterial agent” (Takasago International Corporation, priority 2004, dated 2009).
